Experimental data published in publication PMC2908543, “Uropathogenic Escherichia coli Modulates Immune Responses and Its Curli Fimbriae Interact with the Antimicrobial Peptide LL-37” (PLoS Pathogens, 2010).
Entries after “also recorded” stand apart in the source; their conditions may differ.

Key:
[1] = tested on: curli-mediated biofilm formation by E. coli; assay: Effect on formation of biofilm, crystal violet microtiter plate; assay type: cell-based, Escherichia coli
Description: To measure the ability of the bacteria to adhere and to form biofilm a crystal violet assay in polystyrene microtiter plates (Costar, Corning, NY, USA) was performed. Bacteria were grown in Luria-Bertani (LB) broth without salt for 24 h at 37°C without shaking. Biofilm was then stained with crystal violet (3%). The dye was solubilized with ethanol (95%) and the optical density was measured at 570 nm.
Plates were filled with 90 µL bacterial culture of planktonic cells and 10 µL of aqueous solution of LL-37 in the same concentrations as in the susceptibility assay. As control peptides, sLL-37 (Innovagen AB) and VIP [27] with similar structural properties as LL-37 were utilized. The plates were incubated without shaking at 37°C for 20 h. After incubation, the amount of biofilm formed was determined as described above.

polymeric CsgA = target: T1, polymeric CsgA (Escherichia coli, UniProt P28307); assay: Surface plasmon resonance, polymeric CsgA; conditions: polymeric CsgA immobilized (7000 response units), 0.1 µM peptide, 20 µl/min for 3 min, HBS-EP, Biacore 3000; binding constants not determinable
T1 construct: made in house; host or cells: E. coli LSR12 (C600::csg), co-expressed with CsgG
Description: Binding analysis of LL-37 to both monomeric and polymeric CsgA was performed with surface plasmon resonance (Biacore 3000 instrument; Biacore AB, Uppsala, Sweden). Both monomeric and polymeric CsgA was immobilized on a CM5 sensor chip (Biacore AB) surface by amine coupling. The chip surface was normalized in 70% glycerol and lanes on the chip were activated with injection of 35 µL 0.05 M N-hydroxysuccinimide (NHS)/0.2 M N-ethyl-N′-[3-dimethylamino) propyl]carbodiimide (EDC). Polymeric or monomeric CsgA (1 µM in 10 mM sodium acetate, pH 4.5) was then immobilized on the chip to 7000 response units and 2000 response units, respectively. After immobilization, the lanes were subjected to 60 µL ethanolamine (1 M, pH 8.5) to deactivate remaining activated carboxylic groups. One lane, activated and deactivated, was used as negative control (without addition of CsgA). Standard Biacore HBS-EP (Biacore AB) was utilized as running buffer, and 0.1 µM LL-37, sLL-37 or VIP were injected at 20 µl/min for 3 min. The surface was regenerated after each cycle with 100 mM HCl.

CsgA fiber formation = assay: CsgA fiber formation, Thioflavin T, confocal microscopy; assay type: biochemical, Escherichia coli
Description: CsgA-His6 and CsgG, a lipoprotein that is required for CsgA secretion, were overexpressed in LSR12 (C600::csg). The purification procedure of recombinant CsgA-His6 was performed as previously described with some modifications. The filtrate was incubated with nickel-nitrilotriacetic acid (Ni-NTA) agarose (Invitrogen) for 1 h at 4°C with shaking, centrifuged at 200×g for 5 min and transferred to a polyprep chromatography column (Bio-Rad, Hercules, CA, USA). To confirm protein identity of CsgA-His6, the isolated protein was prepared and subjected to SDS-PAGE as described below, and thereafter the protein was transferred from the gel to a polyvinylidene fluoride (PVDF) membrane (Invitrogen) at 160 mA for 60 min. The band of 15 kDa, corresponding to the molecular weight of CsgA-His6, was excised from the membrane stained with Coomassie Blue and analysed with N-terminal sequence analysis as has been described. Since it has previously been shown that CsgA-His6 has the same polymerizing properties as wild-type CsgA [59], we refer to CsgA-His6 as CsgA.
Recombinant monomeric CsgA was mixed with equimolar LL-37, sLL-37 or VIP and 20 µM ThT, and incubated over night at 37°C, washed twice, and suspended in 10 mM Kpi, pH 7.2 before mounting in ProLong Gold antifade mounting medium (Invitrogen). Images were acquired on a Leica TCS SP5 confocal microscope using a 20× objective. Fluorescence intensity was quantified using ImageJ software. The difference in fluorescence intensity of CsgA with and without peptides was calculated and corrected for the contribution of fluorescence from the peptides themselves.

monomeric CsgA = target: T2, monomeric CsgA (Escherichia coli, UniProt P28307); assay: CsgA monomer stability, SDS-PAGE; assay type: biochemical; conditions: 10 µM CsgA, 20 h at 37°C, Coomassie Blue, seen already at molar ratio 16∶1 (CsgA∶LL-37)
T2 construct: made in house; host or cells: E. coli LSR12 (C600::csg), co-expressed with CsgG
Description: To confirm the inhibition of CsgA polymerization we sought to analyse the stability of the CsgA monomer in the absence and presence of LL-37. Freshly purified, monomeric CsgA (10 µM) was incubated for 20 h at 37°C without or with different concentrations of LL-37 and was subsequently separated by SDS-PAGE. After staining with Coomassie Blue, bands corresponding to LL-37 and/or CsgA in monomeric, dimeric or tetrameric form were visualized. When CsgA was incubated alone, monomers were not visible although sometimes dimers and/or tetramers could be observed. This finding indicates spontaneous formation of CsgA oligomers and/or larger polymers that can not migrate into the gel due to their size. […] This was already seen at a molar ratio of 16∶1 (CsgA∶LL-37). To exclude degradation of CsgA as a possible explanation for the lack of the gel band, polymerized CsgA was treated with 90% formic acid, dissolving polymeric CsgA into monomers. After this treatment, a band corresponding to monomeric CsgA was detectable in the gel (Figure 8A).
Samples were prepared in LDS (lithium dodecyl sulphate) sample buffer (4∶1) and incubated at 70°C for 10 min. Electrophoresis was performed using 4–12% Bis-tris NU-PAGE gels (Invitrogen) at 200 V for 35 min. Gels were stained with Coomassie Blue for 1 h and destained over night in 90% water, 8% methanol and 2% acetic acid (vol/vol/vol).

Pseudomonas aeruginosa = conditions: ref [46]; cited from earlier work
From the text: Biofilm inhibition by antimicrobial polypeptides has previously been described for Pseudomonas aeruginosa. […] A direct interaction with biofilm components was not investigated in these studies. The effect was rather related to an influence of LL-37 on the bacterial gene expression profile or an influence of lactoferrin on free iron. These and our findings stress an important anti-biofilm role of antimicrobial polypeptides in host defense. It is likely that the anti-biofilm activit ...

T1 sequence (P28307 21-151): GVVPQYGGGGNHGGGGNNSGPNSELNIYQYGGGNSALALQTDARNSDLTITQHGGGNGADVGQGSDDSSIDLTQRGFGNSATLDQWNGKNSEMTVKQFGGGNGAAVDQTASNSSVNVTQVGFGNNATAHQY
T2 sequence (P28307 21-151): as above

Q: Which “reduction of biofilm formation” value ([1]; 2.5 µM LL-37, wild-type strain expressing curli and cellulose (data not shown)) does the source give for `CC[C@H](C)[C@H](NC(=O)[C@H](CCCCN)NC(=O)[C@H](CCC(=O)O)NC(=O)[C@H](CCCCN)NC(=O)[C@H](CO)NC(=O)[C@H](CCCCN)NC(=O)[C@H](CCCNC(=N)N)NC(=O)[C@H](Cc1ccccc1)NC(=O)[C@H](Cc1ccccc1)NC(=O)[C@H](CC(=O)O)NC(=O)CNC(=O)[C@H](CC(C)C)NC(=O)[C@@H](N)CC(C)C)C(=O)NCC(=O)N[C@@H](CCCCN)C(=O)N[C@@H](CCC(=O)O)C(=O)N[C@@H](Cc1ccccc1)C(=O)N[C@@H](CCCCN)C(=O)N[C@@H](CCCNC(=N)N)C(=O)N[C@H](C(=O)N[C@H](C(=O)N[C@@H](CCC(N)=O)C(=O)N[C@@H](CCCNC(=N)N)C(=O)N[C@H](C(=O)N[C@@H](CCCCN)C(=O)N[C@@H](CC(=O)O)C(=O)N[C@@H](Cc1ccccc1)C(=O)N[C@@H](CC(C)C)C(=O)N[C@@H](CCCNC(=N)N)C(=O)N[C@@H](CC(N)=O)C(=O)N[C@@H](CC(C)C)C(=O)N[C@H](C(=O)N1CCC[C@H]1C(=O)N[C@@H](CCCNC(=N)N)C(=O)N[C@H](C(=O)N[C@@H](CCC(=O)O)C(=O)N[C@@H](CO)C(=O)O)[C@@H](C)O)C(C)C)[C@@H](C)CC)C(C)C)[C@@H](C)CC` [LL-37] here?
A: more than 80%

Q: What about the “reduction of biofilm formation” value ([1]; 2.5 µM peptide, cellulose-negative, curli-expressing E. coli strain, 37°C, 20 h, two experiments in triplicates) of the same compound?
A: more than 80%

Q: What about the “biofilm-inhibitory versus bactericidal concentrations” value ([1]; qualitative comparison) of the same compound?
A: much lower than bactericidal concentrations

Q: What about the “binding / association and dissociation by SPR” value (polymeric CsgA) of the same compound?
A: higher association with CsgA than the control peptides; also recorded: stronger association and lower dissociation rates

Q: What about the “fluorescence relative to CsgA alone” value (CsgA fiber formation; CsgA with equimolar peptide (1∶1), 20 µM ThT, 20 h at 37°C, CsgA alone = 1 arbitrary unit, corrected for peptide fluorescence, two experiments) of the same compound?
A: 0.05 arbitrary units

Q: And the “inhibition of CsgA fiber formation versus sLL-37 and VIP” value (CsgA fiber formation; molar ratio 1∶1, P = 0.007 versus sLL-37 and P = 0.011 versus VIP)?
A: significantly stronger than the effect of sLL-37; also recorded: evidently stronger for LL-37

Q: What about the “CsgA monomer band at 15 kDa in presence of LL-37” value (monomeric CsgA) of the same compound?
A: a band migrating at 15 kDa, the predicted size of monomeric CsgA, could be observed; also recorded: the CsgA monomer is visible after SDS-PAGE

Q: And the “bacterial surface motility mediated by type IV pili” value (Pseudomonas aeruginosa)?
A: increased bacterial surface motility
